Here are results for 16 compounds from patent publication US20130280212A1, “INHIBITORS OF CYTOCHROME P450” (GILEAD SCIENCES, INC, priority 2010, published 2013).

The target in this test is T1, CYP3A4 (Homo sapiens, UniProt P08684).
T1 construct: Pooled (n≧15 donors) human hepatic microsomal fraction was obtained from BD-Gentest; tissue BD-Gentest (Woburn, Mass.); host or cells: pooled human liver microsomes (n≧15 donors)
Description: CYP3A inhibition assay in pooled human hepatic microsomal fraction (midazolam 1-hydroxylase and testosterone 6β-hydroxylase activities). In kind it is biochemical. As to conditions: human hepatic microsomes. As to the method:
The initial mobile phase consisted of 94.9% water, 0.1% formic acid, and 5% acetonitrile (v/v/v) pumped at 0.5 mL/min. After 0.5 min the acetonitrile concentration was increased to 30% over 0.5 min. The acetonitrile concentration was then further increased to 100% over 0.5 min and held for 1.3 min, after which the column was re equilibrated at the initial conditions for 1.2 min. Rates of metabolite formation were determined from standard curves using PAR determined with authentic metabolite standards.

Setting [1] is: probe activity midazolam 1-hydroxylase, read-out: CYP3A4 IC50 (μM) (midazolam).
[2] abbreviates: probe activity testosterone 6β-hydroxylase, substrate 50 μM, read-out: CYP3A4 IC50 (μM) (testosterone).

Molecules are shown by their SMILES. Read-outs that look alike come from different tables or passages of the source. Some results are limits rather than exact numbers.

T1 sequence (P08684 2-503): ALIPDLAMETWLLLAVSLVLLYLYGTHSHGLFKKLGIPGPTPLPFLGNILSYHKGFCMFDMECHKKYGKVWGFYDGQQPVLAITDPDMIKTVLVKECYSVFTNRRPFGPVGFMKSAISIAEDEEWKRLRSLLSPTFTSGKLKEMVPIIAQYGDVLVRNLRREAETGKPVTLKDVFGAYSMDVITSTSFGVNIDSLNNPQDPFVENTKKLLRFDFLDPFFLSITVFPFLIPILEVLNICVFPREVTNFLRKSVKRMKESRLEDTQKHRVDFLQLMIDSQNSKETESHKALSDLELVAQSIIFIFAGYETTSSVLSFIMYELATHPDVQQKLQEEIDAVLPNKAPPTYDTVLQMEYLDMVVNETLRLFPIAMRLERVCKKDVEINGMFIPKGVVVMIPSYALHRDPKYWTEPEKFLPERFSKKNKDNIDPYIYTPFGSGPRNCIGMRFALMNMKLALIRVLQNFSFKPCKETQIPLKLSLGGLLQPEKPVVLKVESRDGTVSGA

Regarding `C[C@H]1CC[C@H](C(=O)N[C@H](CC[C@H](Cc2ccccc2)NC(=O)OCc2cncs2)Cc2ccccc2)CC1` [Compound 3], the IC50 by setting is: under setting [1], 0.12 µM; under setting [2], 0.27 µM.
As for `CC(C)[C@H]1CC[C@H](C(=O)N[C@H](CC[C@H](Cc2ccccc2)NC(=O)OCc2cncs2)Cc2ccccc2)CC1` [Compound 4], the IC50 under setting [1] is below 0.1 µM and the 50% inhibitory concentration (IC50) under setting [2] was determined as 3.4 µM.
In the case of `O=C(N[C@H](CC[C@H](Cc1ccccc1)NC(=O)[C@H]1CC[C@H](c2ccc(Cl)cc2)CC1)Cc1ccccc1)OCc1cncs1` [Compound 5], the IC50 reads like this: under setting [1], 1.8 µM; under setting [2], above 25 µM.
Turning to `CC[C@@H](C(=O)N[C@H](CC[C@H](Cc1ccccc1)NC(=O)OCc1cncs1)Cc1ccccc1)c1ccccc1` [Compound 6], the IC50 is 0.51 µM under setting [1] and 1.4 µM under setting [2].
`CC[C@H](C)C(=O)N[C@H](CC[C@H](Cc1ccccc1)NC(=O)OCc1cncs1)Cc1ccccc1` [Compound 7]: the half-inhibitory concentration (IC50) reads like this: under setting [1], below 0.1 µM; under setting [2], 0.36 µM.
Consider `CC(C)OC(=O)N[C@H](CC[C@H](Cc1ccccc1)NC(=O)OCc1cncs1)Cc1ccccc1` [Compound 8], for which the IC50 under setting [1] was below 0.1 µM and the 50% inhibitory concentration (IC50) under setting [2] worked out at 0.38 µM.
Consider `CCC(C)OC(=O)N[C@H](CC[C@H](Cc1ccccc1)NC(=O)OCc1cncs1)Cc1ccccc1` (some centres unmarked) [Compound 9], for which the half-inhibitory concentration (IC50) is, setting by setting: under setting [1], 0.13 µM; under setting [2], 0.43 µM.
Regarding `CCC(CC)OC(=O)N[C@H](CC[C@H](Cc1ccccc1)NC(=O)OCc1cncs1)Cc1ccccc1` [Compound 10], the IC50 reads like this: under setting [1], 0.2 µM; under setting [2], 0.5 µM.
The corresponding values for `CC(C)CC(C)OC(=O)N[C@H](CC[C@H](Cc1ccccc1)NC(=O)OCc1cncs1)Cc1ccccc1` (some centres unmarked) [Compound 11] are 0.25 µM and 0.71 µM.
As for `CC(C)CC(OC(=O)N[C@H](CC[C@H](Cc1ccccc1)NC(=O)OCc1cncs1)Cc1ccccc1)C(C)C` (some centres unmarked) [Compound 12], the half-maximal inhibitory concentration (IC50) by setting is: under setting [1], 0.38 µM; under setting [2], 0.4 µM.
With `CC(CC(C)(C)C)OC(=O)N[C@H](CC[C@H](Cc1ccccc1)NC(=O)OCc1cncs1)Cc1ccccc1` (some centres unmarked) [Compound 13], the half-inhibitory concentration (IC50) stood at 0.4 µM under setting [1] and 0.54 µM under setting [2].
The corresponding values for `CC(C)NC(=O)N[C@H](CC[C@H](Cc1ccccc1)NC(=O)OCc1cncs1)Cc1ccccc1` [Compound 14] are below 0.1 µM and 0.27 µM.
Turning to `CCC(C)NC(=O)N[C@H](CC[C@H](Cc1ccccc1)NC(=O)OCc1cncs1)Cc1ccccc1` (some centres unmarked) [Compound 15], the IC50 reads like this: under setting [1], below 0.1 µM; under setting [2], 0.25 µM.
`CCC(CC)NC(=O)N[C@H](CC[C@H](Cc1ccccc1)NC(=O)OCc1cncs1)Cc1ccccc1` [Compound 16]: the IC50 under setting [1] was below 0.1 µM and the IC50 under setting [2] came to 0.41 µM.
As for `CC(C)S(=O)(=O)N[C@H](CC[C@H](Cc1ccccc1)NC(=O)OCc1cncs1)Cc1ccccc1` [Compound 17], the concentration for half-maximal inhibition (IC50) is, setting by setting: under setting [1], below 0.1 µM; under setting [2], 0.32 µM.
As for `CCC(C)S(=O)(=O)N[C@H](CC[C@H](Cc1ccccc1)NC(=O)OCc1cncs1)Cc1ccccc1` (some centres unmarked) [Compound 18], the concentration for half-maximal inhibition (IC50) by setting is: under setting [1], below 0.1 µM; under setting [2], 0.34 µM.
